Assay results taken from article PMC6456241 (Preventive Nutrition and Food Science, 2018).
Values belong to the compound of their own block, whether it stands above or below them.

Key:
[1] = target: mushroom tyrosinase (EC 1.14.18.1) (Agaricus bisporus, UniProt C7FF04); assay: Assay of tyrosinase; format: biochemical
[2] = target: α-Glucosidase (EC 3.2.1.20); assay: Assay of α-glucosidase; format: biochemical; conditions: read-out: Inhibition (IC50) α-Glucosidase; isolated compounds; pNPG substrate, pH 6.8, 37°C; mean±SD of triplicate

Chain of mushroom tyrosinase (EC 1.14.18.1) (C7FF04 1-392 limits assumed): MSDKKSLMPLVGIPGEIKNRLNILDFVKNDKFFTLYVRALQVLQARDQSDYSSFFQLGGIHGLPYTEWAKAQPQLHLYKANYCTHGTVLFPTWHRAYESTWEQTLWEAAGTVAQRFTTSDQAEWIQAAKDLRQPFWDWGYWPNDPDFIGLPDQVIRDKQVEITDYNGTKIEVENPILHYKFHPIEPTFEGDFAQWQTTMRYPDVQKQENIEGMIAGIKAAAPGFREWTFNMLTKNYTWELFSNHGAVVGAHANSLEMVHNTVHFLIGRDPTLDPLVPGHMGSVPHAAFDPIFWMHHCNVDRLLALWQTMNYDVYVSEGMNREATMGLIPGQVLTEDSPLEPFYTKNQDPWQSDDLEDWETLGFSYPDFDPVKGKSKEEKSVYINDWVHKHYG

IC50 [1]: 5.61 ± 0.2 µM
IC50 [2]: 6 ± 0.46 µM
SMILES: CC(C)=CCc1c(O)ccc(C(=O)[C@H]2[C@@H](c3c(O)cc(-c4cc5ccc(O)cc5o4)cc3O)C=C(C)C[C@@H]2c2ccc(O)cc2O)c1O [CMC, chalcomoracin]

IC50 [1]: 10.16 ± 0.03 µM
IC50 [2]: 59.4 ± 2 µM
SMILES: CC(C)=CCc1cc2cc(-c3cc(O)cc(O)c3)oc2cc1O [MCN, moracin N]

Continued, compound first:

SMILES: Oc1cc(O)cc(-c2cc3ccc(O)cc3o2)c1 [MCM, moracin M]
IC50 [1]: 17.2 ± 0.37 µM
IC50 [2]: 168 ± 2.44 µM

SMILES: Oc1cc(O)cc(/C=C/c2ccc(O)cc2O)c1 [ORT, oxyresveratrol]
IC50 [1]: 0.57 ± 0.04 µM
IC50 [2]: 273 ± 13.2 µM

SMILES: CC(C)=CCc1c(O)cc(-c2cc3ccc(O)cc3o2)cc1O [MCC, moracin C]
IC50 [1]: 37.9 ± 0.42 µM
IC50 [2]: 88.8 ± 1.32 µM
